Experimental data reported in patent US8247211B2, “Glycopeptide antibiotics” (American Cyanamid Company, priority 2001, dated 2012).
≈ marks a conversion by molar mass, not a printed value.

Legend:
[1] = tested on: Enterococcus sp.; assay: In vitro antibacterial evaluation: minimum inhibitory concentration (MIC), broth dilution method; format: cell-based
How it was run: (§1)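 Using Muller-Hinton II […] and an inoculum of 5×10^5 CFU/mL, antibiotic dilutions from 64 down to 0.06 μg/mL were tested following NCCLS M7-A2. The MIC is the lowest concentration inhibiting growth, including in methicillin-, penicillin- or vancomycin-resistant clinical isolates.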

[2] = tested on: Escherichia coli; assay: as above; format: cell-based; conditions: strain GC 4560
How it was run: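 Inoculum: 5×10^5 CFU/mL. Range: 64-0.06 μg/mL. Medium: Muller-Hinton II […]; NCCLS M7-A2 broth dilution. Endpoint: lowest concentration inhibiting growth. Strains include methicillin-, penicillin- and/or vancomycin-resistant clinical isolates.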

[3] = tested on: Staphylococcus sp.; assay: as above; format: cell-based; conditions: broth dilution, 18 hours at 35° C.
How it was run: as §1

[4] = tested on: Streptococcus sp.; assay: as above; format: cell-based
How it was run: as §1

[5] = tested on: Staphylococcus aureus-SMITH (GC 4543); assay: Acute lethal infection in mice (ED50); format: in vivo; conditions: female CD-1 mice, intraperitoneal challenge, intravenous dose 30 min. after infection, 7 day survival ratios
How it was run: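 Groups of five female CD-1 mice per dose got intravenous antibiotic in saline or 5% dextrose half an hour after intraperitoneal infection sufficient to kill controls within 24-48 hr. Seven-day survival data from three experiments were combined to derive ED50.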

[6] = Anatomic pathology (heart and kidney histopathology) in mice; format: in vivo, CD-1 mice; conditions: 20 mg/kg intravenously daily for 9 days, microscopic histopathology on day 10
Protocol: 20-day-old CD-1 mice were divided into a vehicle control group (5 mice) and a treatment group (5 mice). Samples of glycopeptide antibiotics were administered at 20 mg/kg intravenously daily for 9 days.
Samples of tissues from necropsied mice were formalin-fixed, paraffin-embedded, sectioned, stained with hematoxylin and eosin, and examined microscopically. Histopathologic findings were recorded. These findings were subjectively graded on a scale corresponding to slight, mild, moderate, marked and severe as compared to untreated controls.

In the case of CC(c1ccccc1)C1NC(=O)CNC(=O)C(CO)NC(=O)C(C(O)C2CN(Cc3ccc(C(C)(C)C)cc3)C(=N)N2C2OC(CO)C(O)C(O)C2O)NC(=O)C(C(O)C2CNC(=N)N2)NC(=O)C(Cc2ccc(OC3OC(CO)C(OC4OC5COC6(OC5C(O)C4O)C4CC5CC(C4)CC6C5)C(O)C3O)cc2)NC1=O (stereo not drawn) [Example 77], the “MIC Enterococcus faecalis (GC 2242)” value ([1]; Enterococcus faecalis (GC 2242), broth dilution, 18 hours at 35° C.) was 16 µg/mL (≈ 10.2 µM), the “MIC Enterococcus faecalis (GC 2691)” value ([1]; Enterococcus faecalis (GC 2691), broth dilution, 18 hours at 35° C.) was 16 µg/mL (≈ 10.2 µM) and the “MIC Enterococcus faecalis (GC 3059)” value ([1]; Enterococcus faecalis (GC 3059), broth dilution, 18 hours at 35° C.) was 16 µg/mL (≈ 10.2 µM). For the same compound, the “MIC Enterococcus faecalis (ATCC 29212)” value ([1]; strain ATCC 29212) was 16 µg/mL (≈ 10.2 µM), the “MIC Enterococcus faecalis (GC 2242)” value ([1]; strain GC 2242) was 16 µg/mL (≈ 10.2 µM) and the “MIC Enterococcus faecium (GC 2243)” value ([1]; strain GC 2243) was 8 µg/mL (≈ 5.08 µM). For the same compound, the “MIC Enterococcus faecalis (GC 2691)” value ([1]; strain GC 2691) was 16 µg/mL (≈ 10.2 µM), the “MIC Enterococcus faecalis (GC 3059)” value ([1]; strain GC 3059) was 16 µg/mL (≈ 10.2 µM) and the “MIC Enterococcus faecalis (GC 4552)” value ([1]; strain GC 4552) was 16 µg/mL (≈ 10.2 µM). For the same compound, the “MIC Enterococcus faecalis (GC 4553)” value ([1]; strain GC 4553) was 8 µg/mL (≈ 5.08 µM), the “MIC Enterococcus faecium (GC 4556)” value ([1]; strain GC 4556) was 16 µg/mL (≈ 10.2 µM) and the “MIC Enterococcus faecium (GC 4557)” value ([1]; strain GC 4557) was 1 to 2 µg/mL. The “MIC Enterococcus avium (GC 4558)” value ([1]; strain GC 4558) was 4 µg/mL (≈ 2.54 µM), the “MIC Enterococcus faecalis (GC 6189)” value ([1]; strain GC 6189) was 16 µg/mL (≈ 10.2 µM) and the “MIC Escherichia coli (GC 4560)” value [2] was 4 µg/mL (≈ 2.54 µM). For the same compound, the “MIC Coagulase Negative Staphylococcus (GC 4547)” value [3] was 4 µg/mL (≈ 2.54 µM), the “MIC Coagulase Negative Staphylococcus (GC 4548)” value [3] was 4 µg/mL (≈ 2.54 µM) and the “MIC Coagulase Negative Staphylococcus (GC 4549)” value [3] was 4 to 8 µg/mL. The “MIC Coagulase Negative Staphylococcus (GC 4551)” value [3] was 8 µg/mL (≈ 5.08 µM), the “MIC Coagulase Negative Staphylococcus (GC 6257)” value [3] was 2 µg/mL (≈ 1.27 µM) and the “MIC Staphylococcus aureus (ATCC 29213)” value [3] was 8 to 16 µg/mL. For the same compound, the “MIC Staphylococcus aureus (GC 1131)” value [3] was 16 µg/mL (≈ 10.2 µM), the “MIC Staphylococcus aureus (GC 3051)” value [3] was 8 to 16 µg/mL and the “MIC Staphylococcus aureus (GC 3053)” value [3] was 16 µg/mL (≈ 10.2 µM). For the same compound, the “MIC Staphylococcus aureus (GC 4541)” value [3] was 4 to 8 µg/mL, the “MIC Staphylococcus aureus (GC 4542)” value [3] was 8 to 16 µg/mL and the “MIC Staphylococcus aureus (GC 4544)” value [3] was 16 µg/mL (≈ 10.2 µM). The “MIC Staphylococcus aureus (GC 4545)” value [3] was 8 µg/mL (≈ 5.08 µM), the “MIC Staphylococcus aureus SMITH (GC 4543)” value [3] was 8 µg/mL (≈ 5.08 µM) and the “MIC Staphylococcus haemolyticus (GC 4546)” value [3] was 4 to 8 µg/mL. The “MIC Staphylococcus aureus-SMITH (GC 4543)” value ([3]; strain SMITH GC 4543) was 8 µg/mL (≈ 5.08 µM), the “MIC Streptococcus agalactiae (GC 4564)” value ([4]; Streptococcus agalactiae (GC 4564), broth dilution, 18 hours at 35° C.) was 1 µg/mL (≈ 0.635 µM) and the “MIC Streptococcus pneumoniae (ATCC 6301)” value ([4]; Streptococcus pneumoniae (ATCC 6301), broth dilution, 18 hours at 35° C.) was 2 µg/mL (≈ 1.27 µM). The “MIC Streptococcus pneumoniae (GC 4565)” value ([4]; Streptococcus pneumoniae (GC 4565), broth dilution, 18 hours at 35° C.) was 2 to 4 µg/mL, the “MIC Streptococcus pyogenes (GC 4563)” value ([4]; Streptococcus pyogenes (GC 4563), broth dilution, 18 hours at 35° C.) was 1 µg/mL (≈ 0.635 µM) and the “MIC Streptococcus pneumoniae (ATCC 6301)” value ([4]; strain ATCC 6301) was 2 µg/mL (≈ 1.27 µM). For the same compound, the “MIC Streptococcus pyogenes (GC 4563)” value ([4]; strain GC 4563) was 1 µg/mL (≈ 0.635 µM), the “MIC Streptococcus agalactiae (GC 4564)” value ([4]; strain GC 4564) was 1 µg/mL (≈ 0.635 µM) and the “MIC Streptococcus pneumoniae (GC 4565)” value ([4]; strain GC 4565) was 2 to 4 µg/mL. For the same compound, the median effective dose (ED50), Staphylococcus aureus-SMITH (GC 4543) [5] was 4 mg/kg, the “Anatomical Pathology (Day 10), Heart” value [6] was 0 and the “Anatomical Pathology (Day 10), Kidney” value [6] was 0.
